# Measured values from patent US8012983B2, “Substituted triazolopyrazines useful for the treatment of degenerative and inflammatory diseases” (Galapagos NV, priority 2008, dated 2011).
# Target: T1, MAPKAPK5 (Homo sapiens, UniProt Q8IW41)
# T1 sequence (Q8IW41 1-471 isoform Q8IW41-2): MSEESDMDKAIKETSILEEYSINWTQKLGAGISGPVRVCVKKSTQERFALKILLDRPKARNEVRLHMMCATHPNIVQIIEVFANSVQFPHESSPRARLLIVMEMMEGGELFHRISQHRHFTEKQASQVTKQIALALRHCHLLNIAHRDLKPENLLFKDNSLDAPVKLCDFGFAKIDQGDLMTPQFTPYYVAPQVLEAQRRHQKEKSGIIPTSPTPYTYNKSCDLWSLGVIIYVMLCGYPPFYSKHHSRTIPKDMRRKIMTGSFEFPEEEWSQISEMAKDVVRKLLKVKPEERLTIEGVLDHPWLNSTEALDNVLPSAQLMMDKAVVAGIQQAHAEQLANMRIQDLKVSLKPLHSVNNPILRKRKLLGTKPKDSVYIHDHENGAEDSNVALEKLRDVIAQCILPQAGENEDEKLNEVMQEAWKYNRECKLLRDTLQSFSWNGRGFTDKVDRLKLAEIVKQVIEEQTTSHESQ
# Test: MAPKAP-K5 FlashPlate kinase assay
# Type: biochemical
# Conditions: 0.6 μM ATP, 30 minutes, room temperature
# Procedure: MAPKAP-K5 reactions are performed in FlashPlate format using 0.1 or 0.2 μCi 33P-ATP; 0.6 μM ATP; 1 mU MAPKAP-K5; 3 μM MAPKAP-K5 peptide substrate, incubated at room temperature for 30 minutes.
# The MAPKAP-K5 kinase reaction is performed in a 384 well polypropylene plate (Matrix Technologies) and then transferred to a streptavidin-coated 384 well flashplate (Perkin-Elmer). To wells containing 2 μL test compound or standard inhibitor, 13 μL Enzyme mix or diluent are added using a Hydra (Robbins Scientific). Reactions are started by addition of 10 μL of [2.5×] substrate cocktail using a Multidrop (Thermo-Labsystems), to give final concentrations in the assay of: • 1 mU MAPKAP-K5 • 3 μM MAPKAP-K5 peptide substrate • 0.6 μM ATP • 0.004 μCi [33P]-γ-ATP/μL • 1× reaction buffer
# Plates are incubated at room temperature for 30 minutes. Reactions are terminated by the addition of 25 μL EDTA (50 mM) to each well using a Micro-fill (Biotek). Reactions are transferred to a streptavidin-coated flashplate using a Zymark robotic system. Plates are incubated for 60 minutes at room temperature. All wells are washed 3 times with 100 μl phosphate buffered saline using a Tecan plate washer. Radioactivity is determined by scintillation counting of the flashplate (empty wells) on a Packard TopCount.
# Enzyme Mix: • Enzyme • 50 mM Tris Hcl (pH 7.5) • 0.1 mM EGTA • 2 mM DTT • 1 mg/mL BSA
# Reaction Buffer: • 50 mM Tris Hcl (pH 7.5) • 0.1 mM EGTA • 10 mM Magnesium acetate • 2 mM DTT
row,IC50 [nM],Structure (SMILES)
1,0.01 to 100,"CC(C)(C)N1C[C@@H]2C[C@H]1CN2c1ccc(Nc2ncc(-c3coc(C(N)=O)c3)n3ncnc23)cc1 [Compound 3, 4-{8-[4-((1S,4S)-5-tert-Butyl-2,5-diaza-bicyclo[2.2.1]hept-2-yl)-phenylamino]-[1,2,4]triazolo[1,5-a]pyrazin-5-yl}-furan-2-carboxamide]"
2,101 to 500,"CC(C)N1C[C@@H]2C[C@H]1CN2c1ccc(Nc2ncc(-c3coc(C(N)=O)c3)n3ccnc23)cc1 [Compound 4, 4-{8-[4-((1S,4S)-5-Isopropyl-2,5-diaza-bicyclo[2.2.1]hept-2-yl)-phenylamino]-imidazo[1,2-a]pyrazin-5-yl}-furan-2-carboxamide]"
3,101 to 500,"CC(C)N1C[C@@H]2C[C@H]1CN2c1ccc(Nc2ncc(-c3cc(C(N)=O)n[nH]3)n3ncnc23)cc1 [Compound 5, 5-{8-(4-((1S,4S)-5-isopropyl-2,5-diazabicyclo[2.2.1]heptan-2-yl)phenyl-amino)-[1,2,4]triazolo[1,5-a]pyrazin-5-yl}-1H-pyrazole-3-carboxamide]"
4,101 to 500,CC(C)(C)N1C[C@@H]2C[C@H]1CN2c1ccc(Nc2ncc(-c3coc(C(N)=O)c3)n3ccnc23)cc1 [Compound 6]
5,101 to 500,"CC(C)N1C[C@@H]2C[C@H]1CN2c1ccc(Nc2ncc(-c3cc[nH]c(=O)c3)n3ccnc23)cc1 [Compound 8, 4-{8-(4-((1S,4S)-5-isopropyl-2,5-diazabicyclo[2.2.1]heptan-2-yl)phenyl-amino)imidazo[1,2-a]pyrazin-5-yl}-1H-pyridin-2-one]"
6,0.01 to 100,"CC(C)N1CC2CCC1CN2c1ccc(Nc2ncc(-c3coc(C(N)=O)c3)n3ncnc23)cc1 (stereo not shown) [Compound 9, 4-{8-(4-(5-isopropyl-2,5-diazabicyclo[2.2.2]octan-2-yl)phenylamino)[1,2,4]-triazolo[1,5-a]pyrazin-5-yl}-furan-2-carboxamide]"
7,101 to 500,"CC(C)N1C[C@@H]2C[C@H]1CN2c1ccc(Nc2ncc(-c3cc(C(N)=O)n[nH]3)n3ncnc23)cn1 [Compound 15, 5-{8-(6-((1S,4S)-5-isopropyl-2,5-diazabicyclo[2.2.1]heptan-2-yl)pyridin-3-ylamino)-[1,2,4]triazolo[1,5-a]pyrazin-5-yl}-1H-pyrazole-3-carboxylic acid amide]"
8,101 to 500,"CC(C)(C)N1C[C@@H]2C[C@H]1CN2c1ccc(Nc2ncc(-c3ccc4c(c3)CNC4=O)n3ncnc23)cc1 [Compound 16, 5-{8-(4-((1S,4S)-5-tert-butyl-2,5-diazabicyclo[2.2.1]heptan-2-yl)phenylamino)-[1,2,4]triazolo-[1,5-a]pyrazin-5-yl}-2,3-dihydro-isoindol-1-one]"
9,101 to 500,"CC(C)(C)N1C[C@@H]2C[C@H]1CN2c1ccc(Nc2ncc(-c3cc(C(N)=O)n[nH]3)n3ncnc23)cc1 [Compound 17, 5-{8-(4-((1S,4S)-5-tert-butyl-2,5-diazabicyclo[2.2.1]heptan-2-yl)phenyl-amino)-[1,2,4]triazolo[1,5-a]pyrazin-5-yl}-1H-pyrazole-3-carboxylic acid amide]"
10,101 to 500,"CC(C)N1C[C@@H]2C[C@H]1CN2c1ccc(Nc2ncc(-c3ccc4c(c3)CNC4=O)n3ncnc23)cn1 [Compound 18, 5-{8-(6-((1S,4S)-5-isopropyl-2,5-diazabicyclo[2.2.1]heptan-2-yl)pyridin-3-ylamino)-[1,2,4]triazolo[1,5-a]pyrazin-5-yl}-2,3-dihydro-isoindol-1-one]"
11,> 1000,"CCOc1cc(-c2cnc(Nc3ccc(N4C[C@@H]5C[C@H]4CN5C(C)C)cc3)c3ncnn23)ccn1 [Compound 19, 5-(2-ethoxypyridin-4-yl)-N-(4-((1S,4S)-5-isopropyl-2,5-diazabicyclo[2.2.1]heptan-2-yl)phenyl)-[1,2,4]triazolo[1,5-a]pyrazin-8-amine]"
12,> 1000,"CC(C)N1C[C@@H]2C[C@H]1CN2c1ccc(Nc2ncc(-c3cc[nH]c(=O)c3)n3ncnc23)cc1 [Compound 20, 4-(8-(4-((1S,4S)-5-isopropyl-2,5-diazabicyclo[2.2.1]heptan-2-yl)phenylamino)-[1,2,4]triazolo[1,5-a]pyrazin-5-yl)pyridin-2(1H)-one]"
13,> 1000,"CCOC(=O)c1cc(-c2cnc(Nc3ccc(N4C[C@@H]5C[C@H]4CN5C(C)C)cc3)c3ncnn23)[nH]n1 [Compound 21, Ethyl 5-(8-(4-((1S,4S)-5-isopropyl-2,5-diazabicyclo[2.2.1]heptan-2-yl)phenylamino)-[1,2,4]triazolo[1,5-a]pyrazin-5-yl)-1H-pyrazole-3-carboxylate]"
14,> 1000,"CCOc1cc(-c2cnc(Nc3ccc(N4C[C@@H]5C[C@H]4CN5C(C)C)cc3)c3nccn23)ccn1 [Compound 22, 5-(2-ethoxypyridin-4-yl)-N-(4-((1S,4S)-5-isopropyl-2,5-diazabicyclo[2.2.1]heptan-2-yl)phenyl)imidazo[1,2-a]pyrazin-8-amine]"
15,> 1000,"CC(C)N1C[C@@H]2C[C@H]1CN2c1ccc(Nc2ncc(-c3noc(C(N)=O)n3)n3ncnc23)cc1 [Compound 23, 3-(8-(4-((1S,4S)-5-isopropyl-2,5-diazabicyclo[2.2.1]heptan-2-yl)phenylamino)-[1,2,4]triazolo[1,5-a]pyrazin-5-yl)-1,2,4-oxadiazole-5-carboxamide]"
16,0.01 to 100,"CC(C)N1C[C@@H]2C[C@H]1CN2c1cccc(Nc2ncc(-c3coc(C(N)=O)c3)n3ncnc23)c1 [Compound 24, 4-(8-(3-((1S,4S)-5-isopropyl-2,5-diazabicyclo[2.2.1]heptan-2-yl)phenylamino)-[1,2,4]triazolo[1,5-a]pyrazin-5-yl)furan-2-carboxamide]"
17,101 to 500,"CC(C)N1C[C@@H]2C[C@H]1CN2c1cccc(Nc2ncc(-c3coc(C(N)=O)c3)n3ccnc23)c1 [Compound 25, 4-(8-(3-((1S,4S)-5-isopropyl-2,5-diazabicyclo[2.2.1]heptan-2-yl)phenylamino)imidazo[1,2-a]pyrazin-5-yl)furan-2-carboxamide]"
18,101 to 500,"CC(C)N1C[C@@H]2C[C@H]1CN2c1cccc(Nc2ncc(-c3ccc4c(c3)CNC4=O)n3ncnc23)c1 [Compound 26, 5-(8-(3-((1S,4S)-5-isopropyl-2,5-diazabicyclo[2.2.1]heptan-2-yl)phenylamino)-[1,2,4]triazolo[1,5-a]pyrazin-5-yl)isoindolin-1-one]"

row,Structure (SMILES),IC50 [nM]
1,"CC(C)N1C[C@@H]2C[C@H]1CN2c1ccc(Nc2ncc(-c3ccc4c(c3)CNC4=O)n3ncnc23)cc1 [Compound 1, 5-{8-[4-((1S,4S)-5-Isopropyl-2,5-diaza-bicyclo[2.2.1]hept-2-yl)-phenylamino]-[1,2,4]triazolo[1,5-a]pyrazin-5-yl}-2,3-dihydro-isoindol-1-one]",0.01 to 100
2,"CC(C)N1C[C@@H]2C[C@H]1CN2c1ccc(Nc2ncc(-c3coc(C(N)=O)c3)n3ncnc23)cc1 [Compound 2, 4-{8-[4-((1S,4S)-5-Isopropyl-2,5-diaza-bicyclo[2.2.1]hept-2-yl)-phenylamino]-[1,2,4]triazolo[1,5-a]pyrazin-5-yl}-furan-2-carboxamide]",0.01 to 100
3,"CC(C)N1CC2CCC(C1)N2c1ccc(Nc2ncc(-c3coc(C(N)=O)c3)n3ccnc23)cc1 [Compound 11, 4-{8-(4-(3-isopropyl-3,8-diazabicyclo[3.2.1]octan-8-yl)phenylamino)-imidazo[1,2-a]pyrazin-5-yl}-furan-2-carboxamide]",101 to 500
4,"CC(C)N1C2CCC1CN(c1ccc(Nc3ncc(-c4coc(C(N)=O)c4)n4ncnc34)cc1)C2 [Compound 12, 4-{8-(4-(8-isopropyl-3,8-diazabicyclo[3.2.1]octan-3-yl)phenylamino)[1,2,4]-triazolo[1,5-a]pyrazin-5-yl}-furan-2-carboxamide]",0.01 to 100
